For one test, the target named is T1, GluN1/GluN2C (Rattus norvegicus, UniProt P35439+Q00961).
T1 construct: expressed in transfected cells; host or cells: Xenopus laevis oocytes (nuclear cDNA injection)
The test is described as follows: TEVC on Xenopus oocytes, GluN1/GluN2C diheteromers. Type of test: cell-based. To be noted: 1 µM trans-OptoNAM-3 (dark); listed as trans-OptoNAM-3. The text has this: NMDARs exist as multiple subtypes in the brain that are formed by the combination of two GluN1 and either two identical (diheteromers) or different (triheteromers) GluN2 (GluN2A-D) subunits.[1] We assessed the selectivity of trans-OptoNAM-3 (dark PSS) for the other NMDAR subtypes.
(§1) We used cDNA coding for rat GluN1–1a (named GluN1 herein) (GenBank: U08261.1), rat GluN2A (GenBank: D13211.1), mouse GluN2B (GenBank: D10651.2), rat GluA1 flop (GenBank: M36418.2), and rat Myc-GluA2(Q)-flip (GenBank: AF164344.1) cloned into pcDNA3-based expression plasmids. GluK2 (GenBank: Z11548.1) corresponds to the fully RNA-edited version.[80] The GluN2B-ΔNTD construct is from ref[45] and GluN2B–N615K is from ref[81]. Single mutants GluN2B-Q110G and GluN1-L135H were from ref[19]. The GluA2 cDNA contains a Myc tag ([…]) fused between the signal peptide and the N-terminus sequences, and the GluA2 subunit is […] for its Q/R/N site (GluA2(Q)) to allow permeation of homomeric GluA2 receptors.[2] cDNAs coding for rat GluN2C (GenBank: M91563.1) and GluN2D subunits (GenBank: L31611.1) were in prK5 plasmids.
Expression of recombinant NMDA receptors was obtained by oocyte nuclear coinjection of 37 nL of a mixture of cDNAs (at 30 ng/μL) coding for GluN1–1a and various GluN2 subunits (ratio 1:1). The protocol in ref[43] was followed for the expression of GluN1/GluN2A/GluN2B triheteromers. […]

The next test concerns the target T2, GluN1/GluN2B-Q110G (UniProt P35439+Q01097, Q110G).
T2 construct: expressed in transfected cells; host or cells: Xenopus laevis oocytes (nuclear cDNA injection)
The test is described as follows: TEVC on Xenopus oocytes, EVT-101 site mutant. The format is cell-based, rat GluN1, mouse GluN2B. The following applies: 1 µM trans-OptoNAM-3 (dark).
Excerpt: We finally investigated the location of the OptoNAM-3 binding-site on the receptor. […] The binding site for GluN2B-selective antagonists at the GluN1/GluN2B NTD dimer interface contains two partially overlapping pockets that accommodate GluN2B-selective NAMs of distinct chemical scaffolds:[19] either scaffolds related to ifenprodil or scaffolds related to another GluN2B-selective NAM called EVT-101.[47]
as §1, with “prK5 plasmids. […]” for “prK5 plasmids.”

Molecules are shown by their SMILES.

T2 sequence (Q01097 27-1482 Q110G, other chains not shown): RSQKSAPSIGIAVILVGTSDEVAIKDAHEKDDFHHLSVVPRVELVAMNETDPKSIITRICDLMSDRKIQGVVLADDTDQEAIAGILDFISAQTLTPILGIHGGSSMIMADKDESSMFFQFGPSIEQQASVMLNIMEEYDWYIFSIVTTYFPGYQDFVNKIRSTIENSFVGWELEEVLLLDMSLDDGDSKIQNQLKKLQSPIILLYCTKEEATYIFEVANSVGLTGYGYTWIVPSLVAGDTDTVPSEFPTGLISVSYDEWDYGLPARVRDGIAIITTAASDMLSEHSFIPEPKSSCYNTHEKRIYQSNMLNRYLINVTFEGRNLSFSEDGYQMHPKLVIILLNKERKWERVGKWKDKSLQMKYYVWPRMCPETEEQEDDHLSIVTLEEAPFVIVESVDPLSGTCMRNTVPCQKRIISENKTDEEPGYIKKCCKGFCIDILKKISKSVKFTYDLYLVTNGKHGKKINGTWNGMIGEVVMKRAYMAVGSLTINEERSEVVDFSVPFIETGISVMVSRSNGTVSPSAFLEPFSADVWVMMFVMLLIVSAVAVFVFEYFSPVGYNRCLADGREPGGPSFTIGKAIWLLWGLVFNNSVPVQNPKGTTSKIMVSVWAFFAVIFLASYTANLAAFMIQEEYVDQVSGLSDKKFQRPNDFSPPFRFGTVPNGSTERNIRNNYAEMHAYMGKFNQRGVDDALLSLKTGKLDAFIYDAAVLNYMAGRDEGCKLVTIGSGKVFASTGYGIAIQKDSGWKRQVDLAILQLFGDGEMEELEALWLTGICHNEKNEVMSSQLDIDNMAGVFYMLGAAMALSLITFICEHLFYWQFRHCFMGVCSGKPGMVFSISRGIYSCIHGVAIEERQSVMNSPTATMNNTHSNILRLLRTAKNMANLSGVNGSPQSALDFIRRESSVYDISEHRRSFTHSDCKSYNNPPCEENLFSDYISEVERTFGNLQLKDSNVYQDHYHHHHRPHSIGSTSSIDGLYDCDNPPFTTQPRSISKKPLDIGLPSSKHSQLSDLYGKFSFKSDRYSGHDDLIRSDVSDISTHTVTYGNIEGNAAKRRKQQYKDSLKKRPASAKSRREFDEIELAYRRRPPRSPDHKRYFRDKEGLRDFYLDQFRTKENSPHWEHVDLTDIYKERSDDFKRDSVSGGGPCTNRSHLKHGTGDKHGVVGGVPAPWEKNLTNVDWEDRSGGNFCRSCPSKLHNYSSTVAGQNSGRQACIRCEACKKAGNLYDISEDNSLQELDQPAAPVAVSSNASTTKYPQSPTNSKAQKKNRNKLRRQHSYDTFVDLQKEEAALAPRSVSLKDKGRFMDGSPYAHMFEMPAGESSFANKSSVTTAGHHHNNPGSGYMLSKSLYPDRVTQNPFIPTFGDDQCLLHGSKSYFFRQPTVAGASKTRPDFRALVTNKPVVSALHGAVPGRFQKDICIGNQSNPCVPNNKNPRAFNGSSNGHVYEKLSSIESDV
T1 sequence (Q00961 20-1237, other chains not shown): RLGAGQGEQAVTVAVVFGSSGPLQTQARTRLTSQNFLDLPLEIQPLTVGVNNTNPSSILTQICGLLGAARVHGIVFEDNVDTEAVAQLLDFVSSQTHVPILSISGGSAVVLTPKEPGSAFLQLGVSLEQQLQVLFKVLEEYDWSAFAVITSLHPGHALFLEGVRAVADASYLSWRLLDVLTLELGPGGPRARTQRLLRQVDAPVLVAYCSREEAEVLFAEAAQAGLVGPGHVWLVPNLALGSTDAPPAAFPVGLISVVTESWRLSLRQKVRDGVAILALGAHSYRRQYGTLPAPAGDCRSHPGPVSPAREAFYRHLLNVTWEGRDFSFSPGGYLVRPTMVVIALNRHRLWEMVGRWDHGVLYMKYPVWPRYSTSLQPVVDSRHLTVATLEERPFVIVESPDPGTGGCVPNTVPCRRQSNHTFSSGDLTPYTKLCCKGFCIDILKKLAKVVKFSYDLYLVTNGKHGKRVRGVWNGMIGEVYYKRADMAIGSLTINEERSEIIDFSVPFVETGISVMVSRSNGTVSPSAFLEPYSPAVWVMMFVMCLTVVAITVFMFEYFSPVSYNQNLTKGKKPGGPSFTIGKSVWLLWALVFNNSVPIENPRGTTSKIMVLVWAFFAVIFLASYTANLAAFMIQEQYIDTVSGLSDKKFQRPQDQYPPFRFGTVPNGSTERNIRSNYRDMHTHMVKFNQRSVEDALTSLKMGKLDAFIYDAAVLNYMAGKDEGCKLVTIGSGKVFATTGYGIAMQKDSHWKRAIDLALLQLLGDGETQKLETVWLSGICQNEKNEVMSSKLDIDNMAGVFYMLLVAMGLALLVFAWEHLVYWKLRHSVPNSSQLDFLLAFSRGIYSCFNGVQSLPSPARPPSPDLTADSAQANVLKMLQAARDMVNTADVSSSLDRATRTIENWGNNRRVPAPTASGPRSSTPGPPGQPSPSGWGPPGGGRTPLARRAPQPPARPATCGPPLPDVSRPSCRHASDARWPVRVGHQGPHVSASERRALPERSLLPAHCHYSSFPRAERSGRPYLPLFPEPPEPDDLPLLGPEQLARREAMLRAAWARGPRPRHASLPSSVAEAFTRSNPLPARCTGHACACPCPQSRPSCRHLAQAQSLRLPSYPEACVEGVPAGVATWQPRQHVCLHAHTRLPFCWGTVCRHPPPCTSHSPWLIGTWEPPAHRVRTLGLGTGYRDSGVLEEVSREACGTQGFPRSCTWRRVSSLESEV

Regarding `c1ccc(/N=N/c2ccc(CCNc3ccncc3)cc2)cc1` [OptoNAM-3, (E)-N-(4-(Phenyldiazenyl)phenethyl)pyridin-4-amine], the “inhibition of GluN1/GluN2C” value at GluN1/GluN2C is reported as 3.2% ± 0.5%. The “inhibition of GluN1/GluN2B-Q110G” value on GluN1/GluN2B-Q110G came to 65.503%.

The values are drawn from publication PMC11413854, “Reversible Control of Native GluN2B-Containing NMDA Receptors with Visible Light” (ACS Chemical Neuroscience, 2024).
